# Test results taken from patent EP1785722A1, “Microbial, viral and mammalian susceptibility to agents that affect cell growth and metabolism, and compatibility of compounds” (Stratos Bio Ltd., priority 2005, dated 2007).
# Columns and labels:
# E. coli = assay: MIC / MBC against E. coli; assay type: cell-based
# Micrococcus flavus [1] = assay: Flow microcalorimetry (p-t curves) of growing Micrococcus flavus; assay type: cell-based; settings: single antibiotic at its MIC (4 ug/ml Neo; 2ug/ml POLB)
# Text: (§1) • a) For B. pumilus a simple glucose/salts medium was employed with a glucose concentration of 0.1 % w/v. • b) For Bord. bronch. The above salts medium was used with the addition of nicotinic acid, methionine and glutamic acid. Glutamic acid was used at a concentration of 0.2% w/v. • c) For M. flavus a semidefined medium was employed, using the same salts as a B. pumilus but also Na-citrate, biotin and protease peptone. In the calorimeter a concentration of 0.4% protease peptone was used. All medium constituents (except protease) were analytical reagents. The calorimetric medium was therefore a final concentration of 100ml of either solution a, b or c freshly autoclaved for 15 mins exactly at 121°C, 151b/sq inch. Glucose was added to the appropriate solution after autoclaving.
# (§2) To the vertical face of the vessel close to its base, equidistantly spaced around the circumference, ports were fitted for an oxygen electrode and for sampling/inoculation. The fermenter was closed with a flat flanged glass lid which had five ports accommodating respectively, gas inlet tube, gas exhaust (via air condenser), inlet and outlet flow-lines to and from the calorimeter. The fermenter and lid was sealed with a p.t.f.e. gasket and clamped with a metal clip. The fermenter was placed on a magnetic stirring unit in a water jacket which allowed circulation of the thermostatically controlled water at 30°C or 37°C. The fermenter which contained a Teflon coated magnetic stirring bar, was sterilised by autoclaving.
# (§3) For a typical calorimetric incubation the medium was passed through the calorimetric vessel at the same flow rate and temperature as those used in the experiment to establish a steady baseline deflection. The following operations then took place to a strict timetable. The liquid nitrogen stored ampoule was thawed at 38°C for 3 min and then stirred for 20 sec on a whirlimixer. The bacterial suspension (0.5-1.5ml) volumes was inoculated into the medium (100ml) two minutes after completion of thawing. A Gilson automatic pipette was used for inoculation. The calorimeter inlet flow-line was placed in the incubation medium 30 seconds after inoculation. The flowing incubation medium reached the calorimetric vessel two min after inlet flow-line insertion. At this time the recording of the p-t curves was started. Eight min after inoculation the outflow from the calorimeter was returned to the fermenter (after the "baseline" medium had run to waste but before the inoculated medium ran to waste) thus making a closed system. Aeration was started as soon as the inlet tube was inserted in the fermenter. Microbiological purity of the culture was checked by plating out a sample of the culture at the end of each incubation on nutrient agar (lab M).
# (§4) The output of calorimetric experiments is a plot of power (energy evolution per unit of time) as a function of time. The unit of power (p) is the Watt (W) and the unit of time is the hour (h). In some experiments seconds (s) were used as time unit.
# This point occurred at an increase in deflection of 29.5% from the baseline value.
# [2] = test system: Bordetella Bronchiseptica; assay: Flow microcalorimetry (p-t curves) of growing Bordetella bronchiseptica; assay type: cell-based
# Text: as §1, §2, §3, §4
# After successful freezing of Bord. bronch p-t curves for growth in different concentrations of glutamic acid from 0.1%-0.5% were obtained. It was concluded that a medium containing 0.2% glutamic acid would be sufficient for a good deflection in the microcalorimeter minimising the possibility of the bacteria clogging in the microcalorimetric cell or in the teflon tubes leading to and from the microcalorimetric cell. A pH of 7 was used in all the following experiments as this is the optimum pH for polymyxin - lipid binding.
# It was of vital importance to maintain a constant oxygen tension; this was achieved by using saturation concentrations of oxygen. It was decided to use the height of the small peak as full scale deflection for the antibiotic assay as the increase in power was exponential up to this point and the peak occurred at a convenient time. This choice of assay point was empirical. The inoculum was 1.1 ± 0.06 x 10^8 cfu/ml for all the microclalorimetric incubations. […]
# [3] = test system: Bordetella Bronchiseptica; assay: MIC / MBC against Bordetella bronchiseptica; assay type: cell-based
# Micrococcus flavus [4] = assay: MIC / MBC against Micrococcus flavus; assay type: cell-based; settings: as printed in table heads
# B. pumilus = assay: MIC determination against B. pumilus; assay type: cell-based, Bacillus pumilus
# Experimental: (§5) However when the concentration of organisms was 5.1 x 10^6 cfu/ml which was the inoculum used in the microcalorimetric incubations the MIC was increased to 2 µg/ml; the effect was also bacteriostatic.
# respiring E.coli = assay: Microcalorimetry of respiring E. coli in glucose buffer; assay type: cell-based
# Experimental: E.coli was suspended in 10% DMSO prior to freezing and the viable counts were for batch 1: pre-freeze: 4.0 ± 0.6_ x 10^10 cfu/ml and post -freeze 2.0 ± 0.44 x 10^10 cfu/ml and for batch 2: pre-freeze: 3.45 ± 0.58 x 10^10 cfu/ml and post-freeze 2.93 ± 0.43 x 10^10 cfu/ml. The freezing rate for both batches was 20°C/min the survival rate was 50% for batch 1 and 85% for batch 2. These differences may have been due to batch 1 being kept for 24h at 4°C before being frozen.
# The respiration experiments were carried out in glucose buffer at different pH. The respiration curves obtained from batch 1 (inoculum 2 x 10^10 cfu/ml) and batch 2 Inoculum 3.2 x 10^10 cfu/ml) were essentially similar and a mean was used as a reference). The respiration experiments were carried out at pH 7 for polymyxin and Znbacitracin and at pH 8 for neomycin. No differences in p-t control curves could be observed at pH 7 or pH 8.
# The p-t curves rose and reached a plateau as has been observed for respiration of yeasts and some 20 min later fell to a lower plateau value. Prior incubation of the cells in the buffered glucose for periods up to 20 min before presentation to the calorimeter could reduce or entirely remove this effect.
# Bacillus pumilus = assay: Flow microcalorimetry (p-t curves) of growing Bacillus pumilus; assay type: cell-based
# Text: as §1, §2, §3, §4, §5
# [5] = 0.25 ug/ml added at 0 % of p-t curve
molecule,measurement,setting,value
Polymyxin B sulphate,MBC,E. coli; as printed in table head,6.3 µg/mL
same,MIC,E. coli; as printed in table head,6.3 µg/mL
same,MBC,E. coli; text,6.3 µg/mL
same,MIC,E. coli; text,6.3 µg/mL
same,Observed effect on p-t curves,Micrococcus flavus [1],Slightly delayed peak
same,concentration above which the declines were identical,[2],> 3.5 x MIC
same,time to observable response after addition,[2],≤ 5 min
same,Observed effect on p-t curves,[2]; 0.07 ug/ml added at 18 % of p-t curve,No effect on growth curve
same,response of p-t curve,[2]; 0.033 x MIC (0.07 µg/ml),no response to the antibiotic was observed
same,Comments,[2]; 0.35 -2 ug/ml added at 18 % of p-t curve,All curves return to baseline confirmed bacteriocidal action
same,Observed effect on p-t curves,"[2]; 0.35 -2 ug/ml added at 18 % of p-t curve, CV 2.5%",Linear log dose response 10 min after addition of antibiotic CV 2.5%
same,time to sharp decline in heat output after addition,[2]; 0.5 x MIC,≤ 10 min
same,mode of action,[2]; at MIC values,bactericidal
same,MBC,[3]; as printed in table head,Ug/ml MIC & MBC 2 ug/ml
same,MIC,[3]; as printed in table heads,Ug/ml MIC & MBC 2 ug/ml
same,MIC,[3]; listed as POL,2 µg/mL
same,MBC,[3]; text,2 µg/mL
same,MIC,[3]; text,2 µg/mL
same,MIC,Micrococcus flavus [4],2 µg/mL
same,MIC,B. pumilus; as printed in table heads,20 µg/mL
same,sensitivity of the assay,respiring E.coli,3 µg/mL
same,effect on p-t curve,respiring E.coli; Fig. 15,reduced the initial peak height and thereafter the p-t curve returned to baseline
same,Comments,respiring E.coli; POLB 6.3 ug/ml,Bacteriocidal action demonstrated
same,time to return to baseline (after reduced height of p-t curve initially),"respiring E.coli; POLB 6.3 ug/ml, pH 7",Reduced height of p-t curve initially and returned to baseline within 1 hour
same,time until growth was inhibited completely,"Bacillus pumilus; 20ug/ml POLB, pH 8.00",Within 9 hours growth was inhibited completely
"NC[C@@H]1O[C@H](O[C@H]2[C@@H](O)[C@H](O[C@@H]3[C@@H](O)[C@H](N)C[C@H](N)[C@H]3O[C@H]3O[C@H](CN)[C@@H](O)[C@H](O)[C@H]3N)O[C@@H]2CO)[C@H](N)[C@@H](O)[C@@H]1O.O=S(=O)(O)O [neomycin sulphate, Neomycin sulphate]",MBC,E. coli; as printed in table head,5900 µg/mL
same,MIC,E. coli; as printed in table head,5900 µg/mL
same,MIC,E. coli; text,500 µg/mL
same,Observed effect on p-t curves,Micrococcus flavus [1],No effect on p-t curve
same,Observed effect on p-t curves,"[2]; single antibiotic at its MIC (0.25ug/ml Neo; 100ug/ml ZNB), added at 50 % of p-t curve",No effect on p-t curve
same,MIC,[3]; as printed in table heads,0.25 µg/mL
same,MIC,Micrococcus flavus [4],4 µg/mL
same,effect at MIC,B. pumilus; 5.1 x 10^6 cfu/ml,bacteriostatic
same,MIC,"B. pumilus; 5.1 x 10^6 cfu/ml, inoculum used in the microcalorimetric incubations",2 µg/mL
same,MIC,B. pumilus; inoculum of 1x10^5 cfu/ml,0.1 µg/mL
same,effect at MIC,B. pumilus; inoculum of 1x10^5 cfu/ml,bacteriostatic
same,MIC,B. pumilus; listed as NEO,1 µg/mL
same,effect on power,respiring E.coli; Fig. 16,an increase in power
same,Comments,respiring E.coli; NEO 500 ug/ml,Consistent with increased rate of RNA synthesis
same,Observed effect on p-t curves,"respiring E.coli; NEO 500 ug/ml, pH 8",Increase in heat output
same,heat output,respiring E.coli; all concentrations,increased heat output
same,Linear dose-response between,respiring E.coli; table,10 to 100 µg/mL
same,linear relationship between dose and the reciprocal of increase in response from the control curve,respiring E.coli; text,20 to 100 µg/mL
same,Comments,Bacillus pumilus; [5],No effect
same,Observed effect on p-t curves Related to standard growth curve,Bacillus pumilus; [5],1X standard curve
same,Comments,Bacillus pumilus; 0.5 ug/ml added at 0 % of p-t curve,Inhibition of RNA synthesis
same,Comments,Bacillus pumilus; 1 ug/ml added at 10 % of p-t curve,Growth promoting effect potential stimulation of RNA synthesis
same,Observed effect on p-t curves Related to standard growth curve,"Bacillus pumilus; 1 ug/ml added at 10 % of p-t curve, at 11 h",1.2 X signal at 11 h
same,Comments,Bacillus pumilus; 1 ug/ml added at 15 % of p-t curve,Growth promoting effect potential stimulation of RNA synthesis
same,Observed effect on p-t curves Related to standard growth curve,"Bacillus pumilus; 1 ug/ml added at 15 % of p-t curve, at 11 h",1.2 X signal at 11 h
same,Comments,Bacillus pumilus; 1 ug/ml added at 25 % of p-t curve,Growth promoting effect potential stimulation of RNA synthesis
same,Observed effect on p-t curves Related to standard growth curve,"Bacillus pumilus; 1 ug/ml added at 25 % of p-t curve, at 11 h",5X signal at 11 h
same,Comments,Bacillus pumilus; 2 ug/ml added at 10 % of p-t curve,Growth promoting effect potential stimulation of RNA synthesis
same,Observed effect on p-t curves Related to standard growth curve,"Bacillus pumilus; 2 ug/ml added at 10 % of p-t curve, at 11 h",1.2 Xsignal at 11 h
same,power output,Bacillus pumilus; 0.5 and 1 x MIC (1-2 µg/ml) added after an increase of 10% of full scale deflection,the same effect was observed
same,power output,Bacillus pumilus; 0.5 x MIC (1µg/ml) added after a 25% increase power output,massive power output 2-4h after addition
same,Comments,Bacillus pumilus; > 2 ug/ml added at 10 % of p-t curve,"Inhibition of RNA synthesis Possible to achieve linear dose-response at 7 hours after addition of antibiotic to the bacterial culture, after 11 hours heat-out put levels off b ut do not return to baseline indicating a bacteriostatic effect and maximum inhibition of RNA synthesis"
same,Observed effect on p-t curves Related to standard growth curve,"Bacillus pumilus; > 2 ug/ml added at 10 % of p-t curve, at 11 h",0.75 or less at 11 h
same,power output,Bacillus pumilus; added after an increase in power output of 15% of full scale deflection,only marginally larger than that observed for the normal growth curve
same,power output,Bacillus pumilus; higher concentrations of antibiotic,a decrease in power output was observed
same,concentrations at which an increased heat output can be observed,Bacillus pumilus; organism not given,< 1 µg/mL
